From patent US20170348306A1, “METHODS OF TREATING CANCER” (GLAXOSMITHKLINE LLC, priority 2011, published 2017)
Where two headings read alike, the source gives them in different places.

Key:
KARPAS-422 [1] = test: Cell proliferation assay (6 days, CellTiter-Glo); assay type: cell-based, human
Source text: (§1) Thus, Example 22 and Table 6 better reflect the inhibition of HZH2 inhibitors on cell lines, e.g. the lymphoma cell lines. DLBCL cell lines were the most sensitive to EZH2 inhibition (FIG. 11a). […] Evaluation of GSK126 in additional lymphoma cell lines and extensive genomic and epigenomic characterization will be required to fully elucidate the determinants of sensitivity among lymphoma subtypes.
(§2) Biochemical assays utilized the 5-member PRC2 complex (human Flag-EZH2, EED, SUZ12, AEBP2, RbAp48) containing either WT or mutant EZH2, [^3H-]SAM and the indicated peptide substrate; reactions were incubated for 30 minutes. Global histone modification levels were determined by ELISA or western blot methods using antibodies specific for total histone H3, H3K27me1, H3K27me2, or H3K27me3. Cell proliferation and Caspase-3/7 activity were assessed using CellTiter-Glo and Caspase-Glo 3/7 (Promega), respectively. Gene expression profiling was conducted using Affymetrix Human Genome U133 Plus 2.0 microarrays. Differentially-expressed probe sets were determined by fitting the data to a linear model using the limma statistical package (http://www.bioconductor.org) and carrying out pair-wise contrasts of treated versus control. Significant probe sets were filtered for detection (log2 signal threshold of 8), an average fold-change >2 or <−2, or >1.5 or <−1.5, where indicated, with p-values adjusted for multiple testing correction by FDR (Benjamini Hochberg)<0.1. H3K27me3 ChIP reads were aligned using Bowtie (56). H3K27me3 enrichment peaks were identified using SICER (57) with optimized parameters. A custom PERL script was utilized to quantify the average basal H3K27me3 ChIP-seq tag density across gene sets. All in vivo studies were conducted after review by the Institutional Animal Care and Use Committee at GSK and in accordance with the GSK Policy on the Care, Welfare and Treatment of Laboratory Animals. GSK126 and vehicle were administered to mice intraperitoneally. Two-tailed t-tests were conducted assuming two samples of equal variance.
(§3) The optimal cell seeding was determined empirically for all cell lines by examining the growth of a wide range of seeding densities in a 384-well format to identify conditions that permitted proliferation for 6 days. […] Plates were incubated for 6 days at 37° C. in 5% CO2. Cells were then lysed with CellTiter-Glo (Promega) and chemiluminescent signal was detected with a TECAN Safire2 microplate reader. In addition, an untreated plate of cells was harvested at the time of compound addition (T0) to quantify the starting number of cells. CTG values obtained after the 6 day treatment were expressed as a percent of the T0 value and plotted against compound concentration.

Pfeiffer = test: Cell proliferation assay (6 days, CellTiter-Glo); assay type: cell-based, human
Source text: as §1, §2, §3

EZH1 = EZH1 (Homo sapiens, UniProt Q92800); test: Inhibition of EZH1 methyltransferase activity; assay type: biochemical; conditions: read-out: Ki app
[2] = system: H3K27me3 in DLBCL cell lines; test: ELISA-based quantitation of H3K27me3 in treated cells; conditions: Homo sapiens, EZH2 WT and mutant DLBCL cell lines, 48 hours
Procedure: (§4) Biochemical assays utilized the 5-member PRC2 complex (human Flag-EZH2, EED, SUZ12, AEBP2, RbAp48) containing either WT or mutant EZH2, [^3H-]SAM and the indicated peptide substrate; reactions were incubated for 30 minutes. Global histone modification levels were determined by ELISA or western blot methods using antibodies specific for total histone H3, H3K27me1, H3K27me2, or H3K27me3. Cell proliferation and Caspase-3/7 activity were assessed using CellTiter-Glo and Caspase-Glo 3/7 (Promega), respectively. Gene expression profiling was conducted using Affymetrix Human Genome U133 Plus 2.0 microarrays. Differentially-expressed probe sets were determined by fitting the data to a linear model using the limma statistical package (http://www.bioconductor.org) and carrying out pair-wise contrasts of treated versus control. […] H3K27me3 ChIP reads were aligned using Bowtie (56). […] A custom PERL script was utilized to quantify the average basal H3K27me3 ChIP-seq tag density across gene sets. […]
Following tissue homogenization, tumor tissue lysates were prepared using the Epigentek Histone Extraction kit (OP-0006). […] Luminata Forte substrate (Millipore) was added 5 minutes before chemiluminescence was quantified with an EnVision multi-label plate reader (PerkinElmer). H3K27me3 levels were normalized to total H3 values and IC50 values were determined using a 4-parameter curve fit.

KARPAS-422 [3] = test: Cell cycle analysis by flow cytometry; assay type: cell-based, human; conditions: 500 nM GSK126, 72 hours
Procedure: Cell cycle phase distribution was examined by flow cytometry. […] Cells were washed with PBS, pelleted in BD buffer solution, flash frozen, and stored at −80° C. CycleTest™ PLUS DNA reagent kit (Becton Dickinson, 340242) was used according to the manufacturer's instructions to prepare and stain nuclei with propidium iodide. Samples were evaluated using a FACSCalibur flow cytometer (Becton Dickinson) and data were analyzed using FlowJo software (Tree Star).

[4] = system: H3K27me3 and EZH2 target genes in tumor xenografts; test: Pharmacodynamic study in tumor xenografts (H3K27me3/H3 ELISA, qRT-PCR); assay type: in vivo, mice; conditions: 10 days of once-daily (QD) dosing; dose-dependent
Procedure: Following tissue homogenization, tumor tissue lysates were prepared using the Epigentek Histone Extraction kit (OP-0006). […] Cells were lysed with 0.2N HCl for 30 minutes to extract histones, the acid-insoluble portion was pelleted by centrifugation, and the supernatant was neutralized with neutralization buffer (1M Na2HPO4, pH 12.5; ActiveMotif) containing protease inhibitors (Roche). Lysates were added to Maxisorp ELISA plates (Nunc) in duplicate on each of two plates plus blocking buffer (1% BSA). […] Luminata Forte substrate (Millipore) was added 5 minutes before chemiluminescence was quantified with an EnVision multi-label plate reader (PerkinElmer). H3K27me3 levels were normalized to total H3 values and IC50 values were determined using a 4-parameter curve fit. […]
All studies were conducted after review by the Institutional Animal Care and Use Committee at GSK and in accordance with the GSK Policy on the Care, Welfare and Treatment of Laboratory Animals. […] Tumors were measured with calipers, block randomized according to tumor size into treatment groups. […] Mice were weighed and tumors measured with calipers twice weekly. […]

[5] = Complete blood count analysis of peripheral blood; assay type: in vivo; conditions: immunocompetent CD-1 mice; twice weekly dosing over 18 days
Procedure: All studies were conducted after review by the Institutional Animal Care and Use Committee at GSK and in accordance with the GSK Policy on the Care, Welfare and Treatment of Laboratory Animals. […] Pfeiffer or KARPAS-422 cells (1×10^7) in 100% matrigel (BD Biosciences) were implanted subcutaneously in female beige SCID mice. Tumors were measured with calipers, block randomized according to tumor size into treatment groups. […] Mice were weighed and tumors measured with calipers twice weekly. For mouse pharmacokinetic studies, tumor and blood samples were harvested from euthanized mice at the indicated time. […] For pharmacodynamic studies, a portion of each tumor was frozen for H3K27me3/H3 ELISAs or placed in RNAlater (Ambion) for RNA isolation. For peripheral blood analyses, blood was harvested via cardiac puncture from euthanized, immunocompetent CD-1 mice (3 mice/group) on day 18. Blood was immediately placed into a Microtainer EDTA tube (BD) and gently mixed by inverting. A complete blood count analysis was conducted using the Advia 2120 hematology analyzer (Siemens Medical Solutions) using multi-species software as per manufacturer's instructions.

[6] = system: B-cell lymphoma cell lines; test: Cell proliferation assay (6 days, CellTiter-Glo), panel; assay type: cell-based; conditions: Homo sapiens, 144 h, read-out: growth IC50
Source text: as §1, §4

Chain of EZH1 (Q92800 whole entry): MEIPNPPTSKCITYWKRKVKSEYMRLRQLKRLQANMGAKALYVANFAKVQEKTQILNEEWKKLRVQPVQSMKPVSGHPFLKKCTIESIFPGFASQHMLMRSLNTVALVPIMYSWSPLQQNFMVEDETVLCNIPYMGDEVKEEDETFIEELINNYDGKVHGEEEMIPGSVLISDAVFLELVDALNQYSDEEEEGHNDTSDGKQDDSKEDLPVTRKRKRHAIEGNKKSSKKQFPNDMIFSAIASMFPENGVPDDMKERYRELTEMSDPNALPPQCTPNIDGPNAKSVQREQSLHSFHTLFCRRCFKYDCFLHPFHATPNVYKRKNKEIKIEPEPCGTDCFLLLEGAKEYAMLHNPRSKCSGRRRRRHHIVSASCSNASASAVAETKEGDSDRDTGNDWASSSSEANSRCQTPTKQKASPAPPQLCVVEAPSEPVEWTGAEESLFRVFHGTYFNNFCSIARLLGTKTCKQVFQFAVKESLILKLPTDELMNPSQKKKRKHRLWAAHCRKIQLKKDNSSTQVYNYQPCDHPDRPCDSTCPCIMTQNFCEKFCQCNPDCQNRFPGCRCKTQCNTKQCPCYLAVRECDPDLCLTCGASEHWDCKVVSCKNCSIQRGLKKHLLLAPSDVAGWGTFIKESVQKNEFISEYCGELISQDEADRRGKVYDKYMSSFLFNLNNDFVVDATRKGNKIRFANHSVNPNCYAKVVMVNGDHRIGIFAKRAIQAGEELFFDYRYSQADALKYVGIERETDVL
Chain of EZH1 (O75530 whole entry partner): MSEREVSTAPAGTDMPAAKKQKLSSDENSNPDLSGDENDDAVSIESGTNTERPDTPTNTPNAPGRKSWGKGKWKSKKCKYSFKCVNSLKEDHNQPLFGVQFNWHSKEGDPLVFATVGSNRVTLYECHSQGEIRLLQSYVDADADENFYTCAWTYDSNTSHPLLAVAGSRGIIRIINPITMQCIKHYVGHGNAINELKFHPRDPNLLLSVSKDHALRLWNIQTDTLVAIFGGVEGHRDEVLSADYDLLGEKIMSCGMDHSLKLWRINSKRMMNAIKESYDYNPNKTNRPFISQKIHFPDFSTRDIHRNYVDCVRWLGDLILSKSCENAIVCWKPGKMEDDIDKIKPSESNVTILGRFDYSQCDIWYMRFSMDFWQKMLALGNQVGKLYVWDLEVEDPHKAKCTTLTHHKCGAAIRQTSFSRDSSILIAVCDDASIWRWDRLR
Chain of EZH1 (Q15022 whole entry partner): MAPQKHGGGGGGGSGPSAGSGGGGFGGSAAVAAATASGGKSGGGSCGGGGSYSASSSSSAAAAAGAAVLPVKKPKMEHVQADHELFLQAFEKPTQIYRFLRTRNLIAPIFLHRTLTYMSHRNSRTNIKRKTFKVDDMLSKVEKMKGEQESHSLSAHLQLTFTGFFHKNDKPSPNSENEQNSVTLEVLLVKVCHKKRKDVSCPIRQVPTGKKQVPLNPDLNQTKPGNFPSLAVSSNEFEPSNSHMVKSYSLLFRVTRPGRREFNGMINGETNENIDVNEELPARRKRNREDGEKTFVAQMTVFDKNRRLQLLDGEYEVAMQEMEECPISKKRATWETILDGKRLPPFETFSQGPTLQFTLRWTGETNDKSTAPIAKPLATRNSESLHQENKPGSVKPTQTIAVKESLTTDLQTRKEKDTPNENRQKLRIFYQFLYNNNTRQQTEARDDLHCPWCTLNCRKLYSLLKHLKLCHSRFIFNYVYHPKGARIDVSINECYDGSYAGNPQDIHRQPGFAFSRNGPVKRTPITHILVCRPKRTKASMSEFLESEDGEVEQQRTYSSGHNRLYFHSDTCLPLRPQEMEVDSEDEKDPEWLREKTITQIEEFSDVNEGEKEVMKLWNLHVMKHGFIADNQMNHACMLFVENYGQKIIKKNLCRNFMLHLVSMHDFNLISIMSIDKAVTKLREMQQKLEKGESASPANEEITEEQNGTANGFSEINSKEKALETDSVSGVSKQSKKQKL

Structure (SMILES): CC[C@H](C)n1cc(C)c2c(C(=O)NCc3c(C)cc(C)[nH]c3=O)cc(-c3ccc(N4CCNCC4)nc3)cc21 [GSK126]
- time required for maximal potency on growth (KARPAS-422 [1]): 6 to 7 days
- IC50 (KARPAS-422 [1]; Homo sapiens, 144 h, 6 days, DLBCL, EZH2 Y641F (HET), read-out: AVERAGE GROWTH IC50): 0.232 µM
- time after which net decreases in cell number were evident (Pfeiffer): 3 days
- time after which potent inhibition of cell proliferation was observed (Pfeiffer): 2 days
- IC50 (Pfeiffer; Homo sapiens, 144 h, […], 6 days, DLBCL, EZH2 A677G (HET), read-out: AVERAGE GROWTH IC50): 0.028 µM
- Ki (EZH1): 0.089 µM
- IC50 [2]: 0.01 to 0.252 µM
- cells in G1 (KARPAS-422 [3]): 77%
- gene expression in tumor xenografts [4]: increased
- global H3K27me3 in tumor xenografts [4]: decreased
- complete blood count, blood cell types [5]: no significant changes
- IC50 ([6]; Burkitt (BL) and Hodgkin's (HL) lymphoma cell lines, with the exception of Jiyoye): > 1.3 µM
- IC50 ([6]; B-cell, six of the seven most sensitive DLBCL cell lines, harboring Y641N, Y641F, or A677G EZH2 mutations): 0.028 to 0.861 µM
